Reference: US20250034109A1, “SALTS, COCRYSTALS, PHARMACEUTICAL COMPOSITIONS THEREOF, AND METHODS OF TREATMENT INVOLVING THE SAME” (Servier Pharmaceuticals LLC, priority 2023, published 2025)

Assays:
mutant IDH1 = details: biochemical and cellular assays; cited from earlier work
mutant IDH2 = details: biochemical and cellular assays; cited from earlier work
[1] = Solubility of the drug substance (general statement); assay type: physicochemical

solubility [1]: poorly soluble
Compound: C[C@@H](Nc1nc(N[C@H](C)C(F)(F)F)nc(-c2cccc(Cl)n2)n1)C(F)(F)F [Compound 1, 6-(6-chloropyridin-2-yl)-N^2,N^4-bis((R)-1,1,1-trifluoropropan-2-yl)-1,3,5-triazine-2,4-diamine]
inhibitor of mutant IDH1 protein (mutant IDH1): inhibitor | inhibitor of mutant IDH2 protein (mutant IDH2): inhibitor
